Measured values reported in patent publication US20260217701A1, “SELECTIVE BET INHIBITORS AND USES THEREOF” (Tay Therapeutics Limited, priority 2022, published 2026).
Values joined by “and” are separate entries in the source; they are usually repeats but may differ in a detail not shown here. Equal entries are not always repeated.

Test system: imiquimod-induced psoriasis
Assay: Imiquimod-induced psoriasis model
Assay type: in vivo, mice
Details: for Body Weight D1: Day 1 (before treatment start on Day 8); for Body Weight D1 / Body Weight D3 / Body Weight D5 / Body Weight D7 / Body Weight D8 / Body Weight D9 / Body Weight D10 / Body Weight D11 / Body Weight D12 / Body Weight D13 / Body Weight D14 / Body Weight D15 / MBWC D1-D8 / MBWC D8-D15 / PASI Scores: individual animals; for Body Weight D3: Day 3 (before treatment start on Day 8); for Body Weight D5: Day 5 (before treatment start on Day 8); for Body Weight D7: Day 7 (before treatment start on Day 8); for Body Weight D8: Day 8 (first day of treatment); for Body Weight D9: Day 9; for Body Weight D10: Day 10; for Body Weight D11: Day 11; for Body Weight D12: Day 12; for Body Weight D13: Day 13; for Body Weight D14: Day 14; for Body Weight D15: Day 15; for MBWC D1-D8: body weight change Day 1 to Day 8 (before treatment); for MBWC D8-D15: body weight change Day 8 to Day 15 (treatment period); for PASI Scores: IMI + Compound A 1 mg/kg
Method in brief: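 Mice given topical imiquimod (5% cream) daily on depilated backs Days 1–14; Compound A in 5% DMSO/40% PEG-400/55% saline from Day 8, clobetasol topical as reference. Daily PASI (erythema, induration, peeling, each 0–4, summed) Days 8–15; spleen weight, open-field behaviour, serum IL-1B, IL-6, IL-17, TNF-α, IL-22, IL-23 at Day 15.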

[1] = IMI + 1 mg/kg, 1 mg/kg, in g (unit assumed)
[2] = IMI + 3 mg/kg, 3 mg/kg, in g (unit assumed)
[3] = IMI + 10 mg/kg, 10 mg/kg, in g (unit assumed)

Cn1cc(-c2ccccc2)c(-c2cn(C)c(=O)c3[nH]c(-c4cnn(C(F)(F)F)c4)cc23)cc1=O [Compound A, 6-methyl-4-(1-methyl-2-oxo-5-phenyl-1,2-dihydropyridin-4-yl)-2-(1-(trifluoromethyl)-1H-pyrazol-4-yl)-1,6-dihydro-7H-pyrrolo[2,3-c]pyridin-7-one]
PASI score improvement by day 15 (1 mg/kg): > 80% | PASI score improvement by day 15 (3 mg/kg): > 90% | symptoms by day 15 (representative images) (3 mg/kg): nearly entirely symptom free | PASI-90 (change in PASI score ≥90%) by day 7 of treatment (3 mg/kg IP once daily): surpassed PASI-90 | PASI score improvement by day 15 (10 mg/kg): > 90% | efficacy on the treatment of psoriasis (3 tested doses (1, 3, 10 mg/kg)): very good efficacy | licking scoring (D15): effective in reducing licking scoring | rearing behavior (D15, open field): restored rearing behavior | Body Weight D1 [1]: 16.93 and 17.80 and 16.08 and 16.97 and 17.74 and 17.12 and 18.36 and 17.34 | Body Weight D3 [1]: 15.40 and 16.02 and 15.09 and 15.92 and 16.29 and 16.59 and 16.98 and 15.19 | Body Weight D5 [1]: 15.20 and 16.76 and 15.65 and 16.45 and 16.71 and 17.23 and 17.40 and 15.42 | Body Weight D7 [1]: 15.18 and 17.36 and 15.85 and 16.10 and 16.71 and 17.27 and 17.41 and 15.38 | Body Weight D8 [1]: 14.60 and 16.99 and 15.82 and 16.44 and 16.60 and 17.49 and 16.66 and 14.75 | Body Weight D9 [1]: 14.63 and 17.16 and 15.82 and 16.15 and 16.59 and 17.04 and 16.41 and 15.55 | Body Weight D10 [1]: 14.70 and 16.93 and 15.61 and 15.89 and 16.21 and 16.73 and 16.12 and 15.11 | Body Weight D11 [1]: 14.84 and 17.22 and 15.81 and 15.74 and 16.25 and 16.90 and 16.89 and 15.58 | Body Weight D12 (IMI + 1 mg/kg, 1 mg/kg): 14.87 and 16.99 (2×) and 15.46 and 15.54 and 17.30 and 17.06 and 15.66 | Body Weight D13 [1]: 15.05 and 17.40 and 16.20 and 15.94 and 16.75 and 17.05 and 16.69 and 15.46 | Body Weight D14 [1]: 15.56 and 17.50 and 16.49 and 16.50 and 17.20 and 17.24 and 16.86 and 16.35 | Body Weight D15 [1]: 15.74 and 17.76 and 16.69 and 17.05 and 17.07 and 17.34 and 17.23 and 16.41 | MBWC D1-D8 (IMI + 1 mg/kg, 1 mg/kg): −2.33 and −0.81 and −0.26 and −0.53 and −1.14 and 0.37 and −1.70 and −2.59 | MBWC D8-D15 (IMI + 1 mg/kg, 1 mg/kg): 1.14 and 0.77 and 0.87 and 0.61 and 0.47 and −0.15 and 0.57 and 1.66 | Body Weight D1 [2]: 17.31 and 16.98 and 19.05 and 16.34 and 18.16 and 17.71 and 15.90 and 17.04 | Body Weight D3 [2]: 15.94 and 14.69 and 16.63 and 15.29 and 15.93 and 15.05 and 14.65 and 15.53 | Body Weight D5 [2]: 16.84 and 15.15 and 16.74 and 15.65 and 17.11 and 16.06 and 16.09 and 15.35 | Body Weight D7 [2]: 16.64 and 14.71 and 16.54 and 14.84 and 17.16 and 15.73 and 15.75 and 15.45 | Body Weight D8 (IMI + 3 mg/kg, 3 mg/kg): 16.59 and 14.84 and 16.76 and 15.51 (2×) and 15.95 and 15.14 and 15.67 | Body Weight D9 [2]: 16.53 and 14.49 and 16.98 and 15.40 and 16.26 and 15.22 and 15.49 and 14.89 | Body Weight D10 [2]: 16.64 and 14.53 and 17.40 and 15.71 and 16.02 and 15.31 and 14.80 and 14.76 | Body Weight D11 [2]: 17.05 and 14.95 and 17.25 and 15.60 and 16.07 and 15.67 and 15.43 and 15.33 | Body Weight D12 [2]: 17.56 and 15.38 and 17.88 and 15.18 and 16.82 and 16.07 and 15.80 and 15.88 | Body Weight D13 [2]: 17.68 and 16.03 and 18.03 and 15.39 and 16.24 and 16.09 and 15.63 and 15.61 | Body Weight D14 [2]: 17.80 and 16.01 and 17.97 and 15.32 and 16.91 and 16.84 and 15.90 and 15.97 | Body Weight D15 (IMI + 3 mg/kg, 3 mg/kg): 18.44 (2×) and 16.47 (2×) and 15.82 and 16.95 and 16.91 and 16.13 | MBWC D1-D8 (IMI + 3 mg/kg, 3 mg/kg): −0.72 and −2.14 and −2.29 and −0.83 and −2.21 and −2.57 and −0.39 and −1.37 | MBWC D8-D15 (IMI + 3 mg/kg, 3 mg/kg): 1.85 and 1.63 and 1.68 and 0.31 and 1.00 and 1.77 and 0.62 and 0.80 | Body Weight D1 [3]: 17.49 and 17.30 and 19.10 and 19.20 and 19.68 and 17.68 and 16.28 and 17.45 | Body Weight D3 [3]: 15.01 and 14.91 and 17.43 and 18.70 and 15.42 and 17.04 and 13.99 and 14.57 | Body Weight D5 (IMI + 10 mg/kg, 10 mg/kg): 15.12 (2×) and 14.82 and 17.32 and 19.02 and 15.82 and 16.99 and 15.18 | Body Weight D7 [3]: 16.33 and 15.77 and 17.25 and 18.62 and 16.18 and 17.36 and 15.18 and 14.93 | Body Weight D8 [3]: 16.07 and 15.40 and 17.12 and 18.84 and 15.35 and 16.21 and 14.88 and 14.68 | Body Weight D9 [3]: 15.69 and 15.96 and 16.63 and 19.27 and 15.91 and 16.41 and 14.96 and 14.71 | Body Weight D10 [3]: 15.53 and 15.84 and 16.68 and 18.91 and 16.27 and 16.73 and 15.10 and 14.49 | Body Weight D11 (IMI + 10 mg/kg, 10 mg/kg): 15.74 and 15.58 (2×) and 16.84 and 19.15 and 16.81 and 17.05 and 15.32 | Body Weight D12 [3]: 15.83 and 15.88 and 17.03 and 19.25 and 17.13 and 17.19 and 16.27 and 15.58 | Body Weight D13 [3]: 17.35 and 16.03 and 17.55 and 19.51 and 16.98 and 17.10 and 16.02 and 15.65 | Body Weight D14 [3]: 16.58 and 16.42 and 17.59 and 19.36 and 17.68 and 17.84 and 16.59 and 15.62 | Body Weight D15 [3]: 16.60 and 16.43 and 18.35 and 19.39 and 17.81 and 18.26 and 16.77 and 15.96 | MBWC D1-D8 (IMI + 10 mg/kg, 10 mg/kg): −1.42 and −1.90 and −1.98 and −0.36 and −4.33 and −1.47 and −1.40 and −2.77 | MBWC D8-D15 (IMI + 10 mg/kg, 10 mg/kg): 0.53 and 1.03 and 1.23 and 0.55 and 2.46 and 2.05 and 1.89 and 1.28 | PASI Scores (D8 (day treatment started), 1 mg/kg): 8 (4×) and 6 (2×) and 7 (2×) | PASI Scores (D9, 1 mg/kg): 7 (3×) and 6 (3×) and 9 and 8 | PASI Scores (D10, 1 mg/kg): 7 and 6 (3×) and 5 (3×) and 8 | PASI Scores (D11, 1 mg/kg): 6 (3×) and 4 (2×) and 5 and 8 and 7
